# Assay results from patent publication US12226410B2, “Methods for enhancing cellular clearance of pathological molecules via activation of the cellular protein ykt6” (NORTHWESTERN UNIVERSITY, priority 2019, dated 2025).
# How the values were obtained:
# [1] = tested on: ykt6 SNARE complexes; assay: SEC/western blot of ykt6 SNARE complexes in FTI-treated cultures; assay type: cell-based, human; settings: SH-SY5Y cells, confirmed in A53T iPSn
# Method: FIGS. 5A, 5B, 5C, 5D, 5E, 5F, and 5G. Reducing farnesyl-ykt6 enhances SNARE assembly and improves the lysosomal targeting of GCase. 5A) Ykt6 membrane shift analysis of SH-SY5Y cells expressing GFP-ykt6 wt or CS (n=3). 5B) Co-IP of GFP-ykt6 and bet1 in A53T iPSn (n=3). 5C) Ykt6 membrane shift analysis in FTI-treated SH-SY5Y wt a-syn cells or A53T iPSn (5 nM farnesyltransferase inhibitors (FTI) LNK-754 (FTI-1) or LNK-3248 (FTI-2) for 5 days) (n=4). Sec22b was measured to assess specificity. 5D) SEC/western blot of FTI-1 treated SH-SY5Y cells. Quantification is shown below. 5E) Co-IP of GFP-ykt6 wt or mutant ykt6-SS, (cannot be palmitoylated or farnesylated) in FTI-treated SHSY5Y cells (5 nM LNK-754, 5d) (n=2). 5F) Immunofluorescence of GCase and LAMP2A in FTI-treated H4 a-syn cells transfected with scrambled (scrb) or ykt6 shRNA (n=3). Scale bar=10 um. 5G) GCase maturation analysis in FTI-treated A53T iPSn by endo H (n=3). Values are the mean+/−SEM, *p<0.05.
# Size exclusion chromatography analysis. Cultures or PD brain (cingulate cortex, previously described (Mazzulli et al., 2011)) were homogenized as described above in 1% Triton buffer, centrifuged at 100,000×g for 30 min at 4° C. […]
# Treatment of cultures with farnesyltransferase inhibitors. […] Cultures were harvested and analyzed as described in the above sections.
# [2] = tested on: ykt6; assay: Measurement of farnesyl-ykt6 in SH-SY5Y cells; assay type: cell-based, human; settings: SH-SY5Y cells expressing GFP-ykt6; 10 nM FTI, 48 hours
# Method: FIGS. 14A, 14B, 14C, 14D, 14E, 14F, and 14G. The effects of FTI treatment on ykt6 and lysosomes. 14A) Farnesylation of ykt6 was measured in SH-SY5Y cells expressing GFP-ykt6. Cells treated with or without FTI (LNK-754) were cultured with farnesyl-azide to label farnesyl-modified proteins, immunoprecipitated with GFPaffinity beads, and then conjugated with phosphine-biotin. Biotin was detected with streptavidin-conjugated IRDye800, and normalized to total levels of GFP-ykt6. See methods for details. […] 14B) Membrane shift analysis of SH-SY5Y cells stably expressing GFP-ykt6-CS, treated with 5 nM FTI. Calnexin (CNX) and Coomassie blue (CBB) were used as a loading controls. 14C) Gel filtration/western blot analysis of FTI treated A53T iPSn. Ykt6 complex levels eluting at ca. 120A were quantified on the right (n=2). […] 14E) Raw quantification data of LAMP2A immunofluorescence intensity of individual cells from H4 cells treated with FTI, +/−ykt6 KD. Each data point represents LAMP2A intensity from individual cells, from 3 different culture wells. 14F) Analysis of ER-Golgi trafficking of GCase by endo H resistance after treatment with FTI in SH-SY5Y cells overexpressing wt a-syn (n=3). 14G) Western blot analysis of Triton X-100 soluble a-syn in SH-SY5Y wt a-syn cells after treatment with various concentrations of FTI for 5 days. For all quantifications, values are the mean+/−SEM, *p<0.05. […]
smiles,measurement,setting,value
C#Cc1cccc(-c2cc(=O)n(C)c3ccc([C@](O)(c4ccc(Cl)cc4)c4cncn4C)cc23)c1 [LNK-754],levels of ykt6 SNARE complexes by SEC,[1],elevated the levels of ykt6 SNARE complexes
same,reduction of the farnesyl-ykt6 signal,[2],40%
